Laboratory results: ChEMBL document CHEMBL1201862, “PubChem BioAssay data set” (2004)
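Interpolation was linear, between the two tested concentrations surrounding the appropriate level; five concentrations were tested over 48 hours in 96-well plates. GI50 = concentration required for 50% inhibition of growth.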 Activity calls are given as the source filed them. Cut-off read from the data, not from the text of the source: active = GI50 up to about 1.1 µM and inactive = higher.

How the values were obtained:
Assay in all cases: inhibition of tumour cell growth, NCI panel, 48 h
[1] = test system: A498
[2] = test system: CCRF-CEM
[3] = test system: EKVX
[4] = test system: HL-60
[5] = test system: HOP-62
[6] = test system: HT-29
[7] = test system: LOX IMVI
[8] = test system: OVCAR-5
[9] = test system: OVCAR-8
[10] = test system: RXF 393
[11] = test system: SF-268
[12] = test system: SF-295
[13] = test system: SF-539
[14] = test system: SK-OV-3
[15] = test system: SNB-75
[16] = test system: U-251
[17] = test system: ACHN
[18] = test system: SR

SMILES	GI50 [1]	GI50 [2]	GI50 [3]	GI50 [4]	GI50 [5]	GI50 [6]	GI50 [7]	GI50 [8]	GI50 [9]	GI50 [10]	GI50 [11]	GI50 [12]	GI50 [13]	GI50 [14]	GI50 [15]	GI50 [16]	GI50 [17]	GI50 [18]
N#CC(OC1OC(COC2OC(CO)C(O)C(O)C2O)C(O)C(O)C1O)c1ccccc1 (stereo not given)	> 225 µM (inactive)	> 225 µM (inactive)	> 225 µM (inactive)	> 225 µM (inactive)	> 225 µM (inactive)	> 225 µM (inactive)	> 225 µM (inactive)	> 191 µM (inactive)	> 225 µM (inactive)	> 225 µM (inactive)	> 225 µM (inactive)	> 225 µM (inactive)	> 225 µM (inactive)	> 225 µM (inactive)	> 225 µM (inactive)	> 225 µM (inactive)	–	–
CN(C)c1ccc(/C=C/C(=O)O)cc1	> 100 µM (inactive)	> 100 µM (inactive)	> 100 µM (inactive)	> 100 µM (inactive)	> 100 µM (inactive)	> 100 µM (inactive)	> 100 µM (inactive)	> 100 µM (inactive)	> 100 µM (inactive)	–	> 100 µM (inactive)	> 100 µM (inactive)	> 100 µM (inactive)	> 100 µM (inactive)	> 100 µM (inactive)	–	> 100 µM (inactive)	–
Cn1c(=O)nc2n(-c3ccc(Br)cc3)c3ccccc3nc-2c1=O	11.2 µM (inactive)	3.81 µM (inactive)	1.94 µM (inactive)	–	13.6 µM (inactive)	2.29 µM (inactive)	–	13.6 µM (inactive)	3.38 µM (inactive)	12.3 µM (inactive)	11.3 µM (inactive)	3.66 µM (inactive)	5.85 µM (inactive)	27.8 µM (inactive)	4.65 µM (inactive)	5.12 µM (inactive)	0.543 µM (active)	–
C=C1CC(OC)(C(O)C(=O)N[C@H]2OCO[C@H]3C2O[C@H](C[C@H](O)COC)C(C)(C)C3OC)O[C@H](C)[C@@H]1C (stereo not given in full)	< 0.00773 µM (active)	< 0.00773 µM (active)	< 0.00773 µM (active)	< 0.00773 µM (active)	< 0.00773 µM (active)	< 0.00773 µM (active)	< 0.00773 µM (active)	< 0.00773 µM (active)	< 0.00773 µM (active)	< 0.00773 µM (active)	< 0.00773 µM (active)	< 0.00773 µM (active)	< 0.00773 µM (active)	–	< 0.00773 µM (active)	< 0.00773 µM (active)	–	–
COC(=O)C12CC(c3ccccc31)C1C(=O)OC(=O)C12 (stereo not given)	–	> 100 µM (inactive)	> 100 µM (inactive)	> 100 µM (inactive)	> 100 µM (inactive)	> 100 µM (inactive)	> 100 µM (inactive)	> 100 µM (inactive)	> 100 µM (inactive)	> 100 µM (inactive)	> 100 µM (inactive)	> 100 µM (inactive)	> 100 µM (inactive)	–	17.5 µM (inactive)	> 100 µM (inactive)	> 100 µM (inactive)	–
CCOC(=O)C(N=C(c1ccccc1)c1ccccc1)N(C(=O)OC(C)(C)C)C(=O)OC(C)(C)C (stereo not given)	–	–	> 100 µM (inactive)	–	–	> 100 µM (inactive)	–	> 100 µM (inactive)	> 100 µM (inactive)	19.8 µM (inactive)	> 100 µM (inactive)	> 100 µM (inactive)	> 100 µM (inactive)	> 100 µM (inactive)	82 µM (inactive)	> 100 µM (inactive)	> 100 µM (inactive)	69.3 µM (inactive)
C=C(C(=C)P(=S)(c1ccccc1)c1ccccc1)P(=S)(c1ccccc1)c1ccccc1	> 100 µM (inactive)	> 100 µM (inactive)	> 100 µM (inactive)	7.33 µM (inactive)	> 100 µM (inactive)	> 100 µM (inactive)	–	> 100 µM (inactive)	> 100 µM (inactive)	> 100 µM (inactive)	> 100 µM (inactive)	> 100 µM (inactive)	> 100 µM (inactive)	> 100 µM (inactive)	45.5 µM (inactive)	> 100 µM (inactive)	> 100 µM (inactive)	–
O=c1[nH]cc(COCC(F)(F)C(F)(F)C(F)(F)C(F)F)c(=O)[nH]1	–	> 100 µM (inactive)	> 100 µM (inactive)	> 100 µM (inactive)	> 100 µM (inactive)	> 100 µM (inactive)	> 100 µM (inactive)	> 100 µM (inactive)	> 100 µM (inactive)	> 100 µM (inactive)	> 100 µM (inactive)	> 100 µM (inactive)	–	> 100 µM (inactive)	> 100 µM (inactive)	> 100 µM (inactive)	> 100 µM (inactive)	> 100 µM (inactive)
O=P1(Oc2ccc(Cl)cc2Cl)Oc2cc3ccccc3cc2O1	29.1 µM (inactive)	35.5 µM (inactive)	33.9 µM (inactive)	21.5 µM (inactive)	71.8 µM (inactive)	> 72.9 µM (inactive)	68.9 µM (inactive)	> 100 µM (inactive)	69 µM (inactive)	> 58.9 µM (inactive)	> 100 µM (inactive)	59.3 µM (inactive)	> 84.9 µM (inactive)	> 100 µM (inactive)	70.8 µM (inactive)	81.7 µM (inactive)	–	–
Cc1nc(Nc2ccccc2)sc1C(=O)NNC(N)=O	46.9 µM (inactive)	> 100 µM (inactive)	55.6 µM (inactive)	> 100 µM (inactive)	49.8 µM (inactive)	–	> 100 µM (inactive)	> 100 µM (inactive)	> 100 µM (inactive)	29.2 µM (inactive)	> 100 µM (inactive)	> 100 µM (inactive)	> 100 µM (inactive)	> 100 µM (inactive)	29.6 µM (inactive)	99.3 µM (inactive)	> 100 µM (inactive)	–
CSCC[C@@H](NC(=O)[C@H](CC(C)C)NC(=O)C(Cc1cnc[nH]1)NC(=O)CNC(=O)[C@@H](NC(=O)[C@H](C)NC(=O)[C@H](Cc1c[nH]c2ccccc12)NC(=O)[C@H](CCC(N)=O)NC(=O)[C@@H](N)CC(N)=O)C(C)C)C(N)=O (stereo not given in full)	> 100 µM (inactive)	> 100 µM (inactive)	> 100 µM (inactive)	> 100 µM (inactive)	> 100 µM (inactive)	> 100 µM (inactive)	99.8 µM (inactive)	> 100 µM (inactive)	> 100 µM (inactive)	> 100 µM (inactive)	> 100 µM (inactive)	> 100 µM (inactive)	> 100 µM (inactive)	> 100 µM (inactive)	> 100 µM (inactive)	> 100 µM (inactive)	–	–
Cc1cc(NS(=O)(=O)c2ccc(NC(=O)c3cccc4cc5ccccc5nc34)cc2)no1	16.7 µM (inactive)	16 µM (inactive)	29.6 µM (inactive)	–	27.6 µM (inactive)	30 µM (inactive)	> 10 µM (inactive)	23.2 µM (inactive)	16.6 µM (inactive)	14.8 µM (inactive)	12.9 µM (inactive)	19.9 µM (inactive)	11.6 µM (inactive)	39.6 µM (inactive)	17.6 µM (inactive)	12.5 µM (inactive)	11.1 µM (inactive)	–
CCCCc1c2c(nc3c1CCCC3=O)CCCC2	–	> 100 µM (inactive)	> 100 µM (inactive)	> 100 µM (inactive)	> 100 µM (inactive)	> 100 µM (inactive)	> 100 µM (inactive)	–	> 100 µM (inactive)	–	> 100 µM (inactive)	> 100 µM (inactive)	> 100 µM (inactive)	> 100 µM (inactive)	–	> 100 µM (inactive)	> 100 µM (inactive)	41.4 µM (inactive)
Cc1ccccc1NC(=O)CSc1nnc(-c2ccc(/N=C\c3ccc(Cl)cc3)cc2)o1	–	> 100 µM (inactive)	> 100 µM (inactive)	> 100 µM (inactive)	> 100 µM (inactive)	> 100 µM (inactive)	> 100 µM (inactive)	–	> 100 µM (inactive)	> 100 µM (inactive)	> 100 µM (inactive)	> 100 µM (inactive)	–	> 100 µM (inactive)	> 100 µM (inactive)	> 100 µM (inactive)	> 100 µM (inactive)	> 100 µM (inactive)
Cc1nc(=O)n2c(c1C(=O)Nc1ccc(Cl)cc1)NCCC2	–	> 100 µM (inactive)	> 100 µM (inactive)	> 100 µM (inactive)	> 100 µM (inactive)	> 100 µM (inactive)	> 100 µM (inactive)	> 100 µM (inactive)	> 100 µM (inactive)	> 100 µM (inactive)	> 100 µM (inactive)	> 100 µM (inactive)	> 100 µM (inactive)	> 100 µM (inactive)	–	> 100 µM (inactive)	> 100 µM (inactive)	> 100 µM (inactive)
CC1=C(O)C(=O)[C@@H]2O[C@@H]2C1=O	7.13 µM (inactive)	1.6 µM (inactive)	14.7 µM (inactive)	2.2 µM (inactive)	35.3 µM (inactive)	12.1 µM (inactive)	12.5 µM (inactive)	16.3 µM (inactive)	4.79 µM (inactive)	2.84 µM (inactive)	14.2 µM (inactive)	28.2 µM (inactive)	15.9 µM (inactive)	33.4 µM (inactive)	17.4 µM (inactive)	19.4 µM (inactive)	–	–
COc1cc2c(cc1OC)C(Cl)C(c1ccc(Cl)cc1)=C2Cl (stereo not given)	18.6 µM (inactive)	6.15 µM (inactive)	9.86 µM (inactive)	11.4 µM (inactive)	–	13.3 µM (inactive)	12.1 µM (inactive)	–	19.3 µM (inactive)	–	> 10 µM (inactive)	14.5 µM (inactive)	17.1 µM (inactive)	28.5 µM (inactive)	19.1 µM (inactive)	13.7 µM (inactive)	15.2 µM (inactive)	–
